Some test systems named below: SK-MEL-28; M14; SNB-19; HCT-15; UACC-62; SW-620; SN12C; NCI-H522; KM12; SF-539; MOLT-4; CAKI-1; HL-60; HCC 2998; SR; SNB-75; COLO 205.
Common to all, as to assay: growth of human tumour cells (NCI), 48 h

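Interpolation was linear, between the two tested concentrations surrounding the appropriate level; five concentrations were tested over 48 hours in 96-well plates. GI50 is the concentration that inhibits growth by half.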 Activity calls are given as the source filed them. No stated cut-off is given here; in the data, active = GI50 up to about 1.1 µM and inactive = higher.

As for `O=C1C2C3CC(C4C5C=CC(C5)C34)C2C2C3CC(C12)C1C2C=CC(C2)C31` (stereo not drawn), the GI50 in the experiment with SK-MEL-28 was > 100 µM (inactive); in the experiment with M14, > 100 µM (inactive); in the experiment on SNB-19 it was > 100 µM (inactive); in the experiment with HCT-15, greater than 100 µM; with UACC-62 it was > 100 µM (inactive); in the experiment on SW-620 it was 20.8 µM (inactive). The GI50 in the experiment with SN12C, in the experiment on NCI-H522, in the experiment on KM12, with SF-539, with MOLT-4 and in the experiment with CAKI-1 was > 100 µM (inactive) in each case. The GI50 was 75.2 µM (inactive) in the experiment with HL-60; > 100 µM (inactive) in the experiment on HCC 2998; > 100 µM (inactive) with SR; > 100 µM (inactive) in the experiment on SNB-75; > 100 µM (inactive) in the experiment with COLO 205.
Consider `COc1cc2c(c(OC)c1OC)-c1ccc(SC)c(=O)cc1C(CC(=O)Oc1ccccc1F)C2` (stereo not drawn), for which the GI50 in the experiment on SK-MEL-28 was 0.055 µM (active); in the experiment on M14, 0.0175 µM (active); in the experiment with SNB-19 it was 0.0139 µM (active); in the experiment with HCT-15, 0.0122 µM; in the experiment with UACC-62, < 0.0075 µM (active); in the experiment with SW-620, 0.00802 µM (active). Further, the GI50 in the experiment with SN12C is 0.0193 µM (active); in the experiment with NCI-H522 it was 0.0108 µM (active); in the experiment with KM12, < 0.0075 µM (active); in the experiment on SF-539, < 0.0075 µM (active); in the experiment with MOLT-4, 0.0531 µM (active); with CAKI-1, 0.0172 µM (active). For the same compound, the GI50 in the experiment with HL-60 is < 0.0075 µM (active); in the experiment with HCC 2998, 0.0307 µM (active); with SR, < 0.0075 µM (active); in the experiment with SNB-75, > 7.5 µM (inactive); in the experiment with COLO 205, 0.0136 µM (active).
For `O=C(CC1C(=O)Nc2ccccc2[S+]1[O-])Nc1ccccc1` (stereo not drawn), the GI50 in the experiment with SK-MEL-28 is > 100 µM (inactive); in the experiment on M14 it was > 100 µM (inactive); with SNB-19 it was > 100 µM (inactive); in the experiment on HCT-15 it was greater than 100 µM; in the experiment on UACC-62, > 100 µM (inactive); in the experiment on SW-620 it was > 100 µM (inactive). The GI50 is > 100 µM (inactive) with SN12C; > 100 µM (inactive) in the experiment with NCI-H522; > 100 µM (inactive) in the experiment with KM12; 52.7 µM (inactive) in the experiment on SF-539; > 100 µM (inactive) with MOLT-4; > 100 µM (inactive) in the experiment on CAKI-1. Further, the GI50 in the experiment on HL-60 is > 100 µM (inactive); in the experiment on HCC 2998 it was > 100 µM (inactive); in the experiment with SR, 17.2 µM (inactive); in the experiment on SNB-75 it was 29.6 µM (inactive); in the experiment on COLO 205, > 100 µM (inactive).
Turning to `Cc1ccc(Oc2ccc(C(=O)c3cccc(C(=O)c4ccc(Oc5ccc(C)cc5)cc4)n3)cc2)cc1`, the GI50 with SK-MEL-28 is > 100 µM (inactive); in the experiment with M14, > 100 µM (inactive); with SNB-19, > 100 µM (inactive); with HCT-15, greater than 100 µM; in the experiment with UACC-62, > 100 µM (inactive); in the experiment with SW-620, > 100 µM (inactive). Besides, the GI50 with SN12C, in the experiment on NCI-H522, in the experiment with KM12, in the experiment with SF-539, in the experiment on MOLT-4 and in the experiment with CAKI-1 was > 100 µM (inactive) each time. Also, the GI50 in the experiment with HL-60 is > 100 µM (inactive); in the experiment on HCC 2998, > 100 µM (inactive); in the experiment on SR, > 100 µM (inactive); with SNB-75, 42.2 µM (inactive); with COLO 205 it was > 100 µM (inactive).
